In publication PMC9841524, “Structure-Based Rational Design of Small α-Helical Peptides with Broad-Spectrum Activity against Multidrug-Resistant Pathogens” (Journal of Medicinal Chemistry, 2022):
Where two headings read alike, the source gives them in different places. Where no end group is shown, it is not given here.

Tests used:
[1] = test system: K. pneumoniae (ATCCBAA-1705); assay: MIC, standard microtiter dilution (CLSI); assay type: cell-based, Klebsiella pneumoniae; settings: broth microdilution (CLSI), CAMHB, 37 °C, 24 h
Summary of the method: (§1)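 Broth microdilution per CLSI: overnight cultures diluted in cation-adjusted Mueller Hinton Broth to 10^6 CFU/mL, mixed with 2-fold serial peptide dilutions, incubated 37 °C for 24 h. MIC = lowest peptide concentration inhibiting growth. Three independent assays in triplicate.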

E. coli (ATCC 25922) = settings: broth microdilution (CLSI), CAMHB, 37 °C, 24 h
Summary of the method: as §1

MRSA (ATCC BAA-1556) = settings: broth microdilution (CLSI), CAMHB, 37 °C, 24 h
Summary of the method: as §1

[2] = test system: P. aeruginosa (ATCC 27883); assay: MIC, standard microtiter dilution (CLSI); assay type: cell-based, Pseudomonas aeruginosa; settings: broth microdilution (CLSI), CAMHB, 37 °C, 24 h
Summary of the method: as §1

[3] = CD spectroscopy, helicity; assay type: physicochemical; set-up: key to Δ[θ]222 induced by TFE / Δ[θ]222 induced by Liposomes: mean residue molar ellipticity, mdeg cm2/(dmol × res); settings: for [θ]222 mean residue molar ellipticity, TFE / [θ]222 mean residue molar ellipticity, Liposomes / [θ]222 mean residue molar ellipticity, PBS: CD at 222 nm, 25 °C; for [θ]222 mean residue molar ellipticity, TFE: aqueous buffer containing 50% TFE; for [θ]222 mean residue molar ellipticity, Liposomes / Δ[θ]222 induced by Liposomes: bacterial membrane mimicking liposomes; for [θ]222 mean residue molar ellipticity, Liposomes: peptide:lipid molar ratio 1:1.05; for [θ]222 mean residue molar ellipticity, PBS: phosphate buffer saline pH 7.0; for Δ[θ]222 induced by TFE / Δ[θ]222 induced by Liposomes: difference to PBS; for Δ[θ]222 induced by TFE: 50% TFE; for % of helicity induced by TFE: increase in molar ellipticity at 222 nm in the presence of 50% TFE; for % of helicity induced by Liposomes: increase in molar ellipticity at 222 nm in the presence of liposomes;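 for % of helicity induced by Liposomes: share of the total helicity with liposomes gained over the same peptide in PBS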;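 for % of helicity induced by TFE: share of the total helicity in TFE gained over the same peptide in PBS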
Description: The CD spectra of peptides were recorded using a Jasco J-1500 CD spectrophotometer (Jasco, Easton, MD) at 25 °C with a 1 mm path length cell. Wavelengths from 190 to 260 nm were scanned with 1.0 nm step resolution, 100 nm/min speed, 0.4 s response time, and 1 nm bandwidth. CD spectra of the peptides were collected and averaged over three scans in 10 mM sodium phosphate buffer (pH 7.2), helix-inducing solvent 50% TFE (v/v), and bacterial mimic liposomes (75 μM lipid). Spectra were corrected by subtracting a baseline spectrum containing only buffer or 50% TFE or liposomes. The mean residue molar ellipticity was calculated using the formula [drawing 3] where Ab222 is the absorbance observed at 222 nm, MRW is the mean residue molecular weight, C is the concentration in mg/mL, and L is the path length.
Table S1. RP-HPLC retention times and CD spectroscopy analysis of the selected peptides Peptide tR (min)a [θ]222b Δ[θ]222 induced by % of helicity inducedc by PBS TFE Liposomes TFE Liposomes TFE Liposomes […]
atR (min) denotes the retention time at 25°C by RP-HPLC. bThe mean residue molar ellipticity [θ] 222 (mdeg cm2/(dmol × res)) at 222 nm was measured at 25 °C in phosphate buffer saline (PBS, pH 7.0), in aqueous buﬀer containing 50% TFE (TFE), or in presence of bacterial membrane mimicking liposomes (peptide:lipid […]
c% helix induced is the increase in the molar ellipticity at 222 nm (in percentage) of a peptide in the presence of TFE or liposomes.

[4] = test system: human red blood cells (hRBCs); assay: Hemolytic assay; assay type: cell-based; settings: 2 h, 37 °C
Summary of the method: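 Percent hemolysis uses PBS as 0% and 1% Triton X-100 as 100% references, from supernatant absorbance at 567 nm. Red cells (4% in PBS, equal volume) exposed 2 h at 37 °C without agitation to 2-fold serially diluted peptide.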

S. aureus (ATCC 29213) = assay: MIC, standard microtiter dilution (CLSI); assay type: cell-based; settings: broth microdilution (CLSI), CAMHB, 37 °C, 24 h
Summary of the method: as §1

[5] = 10^6 CFU/mL, highest MIC of three independent experiments in triplicate
[6] = hRBC suspension 4% in PBS, hemoglobin release at 567 nm, 1% Triton X-100 = 100%
[7] = value in parentheses (μM), hRBC 4% in PBS, 567 nm

Substance | MIC, K. pneumoniae (ATCCBAA-1705) [1, 5] | MIC, K. pneumoniae (ATCCBAA-1705) ([1]; value in parentheses (μM)) | MIC, E. coli (ATCC 25922) (E. coli (ATCC 25922); [5]) | MIC, E. coli (ATCC 25922) (E. coli (ATCC 25922); value in parentheses (μM)) | MIC, MRSA (ATCC BAA-1556) (MRSA (ATCC BAA-1556); [5]) | MIC, MRSA (ATCC BAA-1556) (MRSA (ATCC BAA-1556); value in parentheses (μM)) | MIC, P. aeruginosa (ATCC 27883) [2, 5] | MIC, P. aeruginosa (ATCC 27883) ([2]; value in parentheses (μM)) | [θ]222 mean residue molar ellipticity, TFE [3] | [θ]222 mean residue molar ellipticity, Liposomes [3] | [θ]222 mean residue molar ellipticity, PBS [3] | Δ[θ]222 induced by TFE [3] | Δ[θ]222 induced by Liposomes [3] | % of helicity induced by TFE [3] | % of helicity induced by Liposomes [3] | HC50 (concentration at which 50% hemolysis was observed) [4, 6] | HC50 (concentration at which 50% hemolysis was observed) [4, 7] | MIC, S. aureus (ATCC 29213) (S. aureus (ATCC 29213); [5]) | MIC, S. aureus (ATCC 29213) (S. aureus (ATCC 29213); value in parentheses (μM))
RWWRRWAR-NH2 [2a] | > 100 µg/mL | > 78.65 µM | > 100 µg/mL | > 78.65 µM | > 100 µg/mL | > 78.65 µM | > 100 µg/mL | > 78.65 µM | -6217 mdeg cm2/(dmol × res) | -4556 mdeg cm2/(dmol × res) | -4051 mdeg cm2/(dmol × res) | -2165 | -505 | 34.83% | 11.08% | > 500 µg/mL | > 393.23 µM | > 100 µg/mL | > 78.65 µM
RWLRRWLRWWR-NH2 [5d] | 50 µg/mL | 28.26 µM | 50 µg/mL | 28.26 µM | 25 µg/mL | 14.13 µM | 50 µg/mL | 28.26 µM | -10148 mdeg cm2/(dmol × res) | -5800 mdeg cm2/(dmol × res) | -4099 mdeg cm2/(dmol × res) | -6048 | -1700 | 59.60% | 29.31% | 130 µg/mL | 73.48 µM | 25 µg/mL | 14.13 µM
RWWRRAWAR-NH2 [3e] | > 100 µg/mL | > 74.48 µM | > 100 µg/mL | > 74.48 µM | > 100 µg/mL | > 74.48 µM | > 100 µg/mL | > 74.48 µM | -8008 mdeg cm2/(dmol × res) | -4987 mdeg cm2/(dmol × res) | -4113 mdeg cm2/(dmol × res) | -3895 | -874 | 48.63% | 17.53% | > 500 µg/mL | > 372.42 µM | > 100 µg/mL | > 74.48 µM
WRRWWRR-NH2 [1c] | > 100 µg/mL | > 83.30 µM | > 100 µg/mL | > 83.30 µM | 100 µg/mL | 83.30 µM | > 100 µg/mL | > 83.30 µM | -4646 mdeg cm2/(dmol × res) | -3092 mdeg cm2/(dmol × res) | -2638 mdeg cm2/(dmol × res) | -2008 | -454 | 43.22% | 14.68% | > 500 µg/mL | > 416.52 µM | 100 µg/mL | 83.30 µM
RAWRAWWRRA-NH2 [4f] | > 100 µg/mL | > 70.74 µM | > 100 µg/mL | > 70.74 µM | > 100 µg/mL | > 70.74 µM | > 100 µg/mL | > 70.74 µM | -7441 mdeg cm2/(dmol × res) | -4470 mdeg cm2/(dmol × res) | -3665 mdeg cm2/(dmol × res) | -3775 | -805 | 50.73% | 18.01% | > 500 µg/mL | > 353.69 µM | > 100 µg/mL | > 70.74 µM
